Patent US3935229A, “Esters of 2-[(4-quinolyl)amino]-benzoic acids” (Synthelabo, priority 1973, dated 1976)

Experiments:
in vivo = conditions: mouse, in vivo, po
Protocol: (§1) Tests were carried out on mice of both sexes, of the Swiss strain, of average weight 20 g. (± 2g.).

[1] = tested on: carragenine-induced oedema of the paw, Sherman rats; experiment: Carragenine-induced oedema test (oedema of the paw); assay type: in vivo; conditions: Rattus norvegicus; rats, oral administration; read-out: Carragenine-induced oedema test AD (AD40 = 40% active dose)
[2] = tested on: pain induced, in Swiss mice, by the intraperitoneal injection of phenylquinone; experiment: Siegmund test (analgesic effect against pain induced by intraperitoneal phenylquinone); assay type: in vivo; conditions: mice; for ED50: Mus musculus, read-out: Siegmund test AD50 (50% active dose); for analgesic effects of the peripheral type (Siegmund test), compared with amidopyrine and glafenine: oral, versus amidopyrine and glafenine
Source text: 1. Effect against pain induced, in Swiss mice, by the intraperitoneal injection of phenylquinone, in accordance with the experimental procedure of Siegmund (Proc. Soc. Exp. Biol. Med., 1957, 95, 729), modified by Cheymol (C.R. Soc. Biol., 1963, 157, 521) and Brittain (Nature, London, 1963, […], 895).

[3] = tested on: mice of both sexes, of the Swiss strain; experiment: in vivo; conditions: mice, oral administration
Protocol: as §1

[4] = tested on: heated plate test, Swiss mice; experiment: Heated plate test (plate heated by acetone vapours; analgesic effects of the central type); conditions: oral, versus amidopyrine

`Cc1c(N(C)C)c(=O)n(-c2ccccc2)n1C` [Amidopyrine, reference compound] gave an LD50 (in vivo; Acute toxicity LD50 (50% lethal dose), mice, oral administration) of 850 mg/kg, an ED40 [1] of 80 mg/kg and an ED50 ([2]; oral administration) of 50 mg/kg.

For `O=C(OCCN1CCN(c2ccc(Cl)cc2)CC1)c1ccccc1Nc1ccnc2cc(Cl)ccc12` [Compound 72-165, 2-(4'-p-Chlorophenyl-piperazino)-ethyl 2-(7'-chloro-4' quinolyl-amino)-benzoate], the LD50 (in vivo) was > 2000 mg/kg and the ED50 ([2]; oral administration) was 50 mg/kg.

For `O=C(OCCN1CCN(c2ccccc2)CC1)c1ccccc1Nc1ccnc2cc(C(F)(F)F)ccc12` [Compound 72-242, 2-(4'-Phenyl-piperazino)-ethyl 2-(7'-trifluoro-methyl-4'quinolyl-amino)-benzoate], the LD50 (in vivo) was > 3000 mg/kg, the ED40 [1] was 40 mg/kg and the ED50 ([2]; oral administration) was 25 mg/kg. For the same compound, the “analgesic effects of the peripheral type (Siegmund test), compared with amidopyrine and glafenine” value [2] was “generally much more active”.

In the case of `O=C(OCCN1CCN(c2ccccc2)CC1)c1ccccc1Nc1ccnc2cc(SC(F)(F)F)ccc12` [Compound 72-244, 2-(4'-Phenyl-piperazino)-ethyl 2-(7'-trifluoromethylthio-4'-quinolyl-amino)-benzoate], the “Acute toxicity LD50 (50% lethal dose)” value [3] is reported as 1,200 mg/kg, the ED50 ([2]; oral administration) is reported as 10 mg/kg and the “analgesic effects of the peripheral type (Siegmund test), compared with amidopyrine and glafenine” value [2] is reported as “generally much more active”.

Work on `Cc1cccc(N2CCN(CCOC(=O)c3ccccc3Nc3ccnc4cc(Cl)ccc34)CC2)c1C` [Compound 72-248, 2-[4'-(2",3"-Dimethyl-phenyl)-piperazino]-ethyl 2-(7'-chloro-4'-quinolyl-amino)-benzoate] yielded an LD50 (in vivo) of 1900 mg/kg, an ED40 [1] of 120 mg/kg and an ED50 ([2]; oral administration) of 20 mg/kg. The “analgesic effects of the peripheral type (Siegmund test), compared with amidopyrine and glafenine” value [2] was “generally much more active”.

With `O=C(OCCN1CCN(c2cccc(C(F)(F)F)c2)CC1)c1ccccc1Nc1ccnc2cc(Cl)ccc12` [Compound 72-391, 2-(4'-m-Trifluoromethylphenyl-piperazino)-ethyl 2-(7'-chloro-4'-quinolyl-amino)-benzoate] the “Acute toxicity LD50 (50% lethal dose)” value [3] was 2,500 mg/kg, the “analgesic effects of the central type (heated plate test), compared with amidopyrine” value [4] was “greater than that of amidopyrine” and the ED40 [1] was 40 mg/kg. The ED50 ([2]; oral administration) was 20 mg/kg and the “analgesic effects of the peripheral type (Siegmund test), compared with amidopyrine and glafenine” value [2] was “generally much more active”.

With `O=C(OCCN1CCN(c2cccc(Cl)c2)CC1)c1ccccc1Nc1ccnc2cc(Cl)ccc12` [Compound 73-018, 2-(4'-m-Chlorophenyl-piperazino)-ethyl 2-(7'-chloro-4'-quinolyl-amino)-benzoate] the LD50 (in vivo) was 4000 mg/kg, the “analgesic effects of the central type (heated plate test), compared with amidopyrine” value [4] was “greater than that of amidopyrine” and the “extent of the greater activity than amidopyrine in the heated plate test” value [4] was “considerable”. The ED40 [1] was 120 mg/kg, the ED50 ([2]; oral administration) was 6 mg/kg and the “analgesic effects of the peripheral type (Siegmund test), compared with amidopyrine and glafenine” value [2] was “generally much more active”.

For `O=C(OCCN1CCN(c2cccc(OC(F)(F)F)c2)CC1)c1ccccc1Nc1ccnc2cc(Cl)ccc12` [Compound 73-030, 2-(4'-m-Trifluoromethoxyphenyl-piperazino)-ethyl 2-(7'-chloro-4'-quinolyl-amino)-benzoate], the LD50 (in vivo) was > 4000 mg/kg, the ED40 [1] was 50 mg/kg and the ED50 ([2]; oral administration) was 100 mg/kg.

For `O=C(OCCN1CCN(c2cccc(SC(F)(F)F)c2)CC1)c1ccccc1Nc1ccnc2cc(Cl)ccc12` [Compound 73-031, 2-(4'-m-Trifluoromethylthiophenyl-piperazino)-ethyl 2-(7'-chloro-4'-quinolyl-amino)-benzoate], the LD50 (in vivo) was 3000 mg/kg, the ED40 [1] was 30 mg/kg and the ED50 ([2]; oral administration) was 100 mg/kg.

For `O=C(OCCN1CCN(c2cccc(C(F)(F)F)c2)CC1)c1ccccc1Nc1ccnc2cc(C(F)(F)F)ccc12` [Compound 73-033, 2-(4'-m-Trifluoromethylphenyl-piperazino)-ethyl 2-(7'-trifluoromethyl-4'-quinolyl-amino)-benzoate], the “Acute toxicity LD50 (50% lethal dose)” value [3] was 4,000 mg/kg and the “Siegmund test AD50 (50% active dose)” value ([2]; oral administration) was 5 mg/kg.

With `O=C(OCCN1CCN(c2cccc(Cl)c2)CC1)c1ccccc1Nc1ccnc2cc(C(F)(F)F)ccc12` [Compound 73-045, 2-(4'-m-Chlorophenyl-piperazino)-ethyl 2-(7'-trifluromethyl-4'-quinolyl-amino)-benzoate] the LD50 (in vivo) was > 4000 mg/kg, the “analgesic effects of the central type (heated plate test), compared with amidopyrine” value [4] was “greater than that of amidopyrine” and the ED40 [1] was 30 mg/kg. The ED50 ([2]; oral administration) was 8 mg/kg and the “analgesic effects of the peripheral type (Siegmund test), compared with amidopyrine and glafenine” value [2] was “generally much more active”.

In the case of `Cc1c(Cl)cccc1N1CCN(CCOC(=O)c2ccccc2Nc2ccnc3cc(Cl)ccc23)CC1` [Compound 73-046, 2-[4'-(3"-Chloro-2"-methyl-phenyl)-piperazino]-ethyl 2-(7'-chloro-4'-quinolyl-amino)-benzoate], the LD50 (in vivo) is reported as > 2000 mg/kg, the ED40 [1] is reported as 30 mg/kg and the ED50 ([2]; oral administration) is reported as 13 mg/kg. The “analgesic effects of the peripheral type (Siegmund test), compared with amidopyrine and glafenine” value [2] was “generally much more active”.

For `Cc1c(Cl)cccc1N1CCN(CCOC(=O)c2ccccc2Nc2ccnc3cc(C(F)(F)F)ccc23)CC1` [Compound 73-047, 2-[4'-(3"-Chloro-2"-methyl-phenyl)-piperazino]-ethyl 2-(7'-trifluoromethyl-4'-quinolyl-amino)-benzoate], the LD50 (in vivo) was 3000 mg/kg, the ED40 [1] was 65 mg/kg and the ED50 ([2]; oral administration) was 16 mg/kg. For the same compound, the “analgesic effects of the peripheral type (Siegmund test), compared with amidopyrine and glafenine” value [2] was “generally much more active”.

With `O=C(OCCN1CCN(c2cccc(SC(F)(F)F)c2)CC1)c1ccccc1Nc1ccnc2cc(C(F)(F)F)ccc12` [Compound 73-048, 2-(4'-m-Trifluoromethylthiophenyl-piperazino)-ethyl 2-(7'-trifluoromethyl-4'-quinolyl-amino)-benzoate] the LD50 (in vivo) was 4000 mg/kg, the ED40 [1] was 30 mg/kg and the ED50 ([2]; oral administration) was 6 mg/kg. The “analgesic effects of the peripheral type (Siegmund test), compared with amidopyrine and glafenine” value [2] was “generally much more active”.

With `O=C(OCCN1CCN(c2cccc(OC(F)(F)F)c2)CC1)c1ccccc1Nc1ccnc2cc(C(F)(F)F)ccc12` [Compound 73-051, 2-(4'-m-trifluoromethoxyphenyl-piperazino)-ethyl 2-(7'-trifluoromethyl-4'-quinolyl-amino)-benzoate] the LD50 (in vivo) was > 4000 mg/kg, the ED40 [1] was 50 mg/kg and the ED50 ([2]; oral administration) was 16 mg/kg. For the same compound, the “analgesic effects of the peripheral type (Siegmund test), compared with amidopyrine and glafenine” value [2] was “generally much more active”.

For `O=C(OCCN1CCN(c2cccc(SC(F)(F)F)c2)CC1)c1ccccc1Nc1ccnc2cc(SC(F)(F)F)ccc12` [Compound 73-069, 2-(4'-m-Trifluoromethylthiophenyl-piperazino)-ethyl 2-(7'-trifluoromethylthio-4'-quinolyl-amino)-benzoate], the “Acute toxicity LD50 (50% lethal dose)” value [3] was 2,200 mg/kg, the ED40 [1] was 55 mg/kg and the ED50 ([2]; oral administration) was 50 mg/kg.

With `O=C(OCCN1CCN(c2cc(C(F)(F)F)cc(C(F)(F)F)c2)CC1)c1ccccc1Nc1ccnc2cc(C(F)(F)F)ccc12` [Compound 73-070, 2-[4'-(3",5"-Di-trifluoromethyl-phenyl)-piperazino]-ethyl 2-(7'-trifluoromethyl-4'-quinolyl-amino)-benzoate] the LD50 (in vivo) was > 4000 mg/kg, the ED40 [1] was > 80 mg/kg and the ED50 ([2]; oral administration) was 16 mg/kg.

Compound `CCCCC1C(=O)N(c2ccccc2)N(c2ccccc2)C1=O` [Phenylbutazone, reference compound] has an ED40 [1] of 30 mg/kg and an ED50 ([2]; oral administration) of 90 mg/kg.

For `O=C(OCCN1CCN(c2cccc(C(F)(F)F)c2)CC1)c1ccccc1Nc1ccnc2c(C(F)(F)F)cccc12` [SLB 179, 2-(4'-m-Trifluoromethylphenyl-piperazino)-ethyl 2-(8'-trifluoromethyl-4'-quinolyl-amino)-benzoate], the LD50 (in vivo) was > 3000 mg/kg, the “analgesic effects of the central type (heated plate test), compared with amidopyrine” value [4] was “greater than that of amidopyrine” and the ED40 [1] was 120 mg/kg. The ED50 ([2]; oral administration) was 25 mg/kg and the “analgesic effects of the peripheral type (Siegmund test), compared with amidopyrine and glafenine” value [2] was “generally much more active”.

In the case of `O=C(OCCN1CCN(c2cccc(Cl)c2)CC1)c1ccccc1Nc1ccnc2c(C(F)(F)F)cccc12` [SLB 180, 2-(4'-m-Chlorophenyl-piperazino)-ethyl 2-(8'-trifluoromethyl-4'-quinolyl-amino)-benzoate], the LD50 (in vivo) is reported as > 3000 mg/kg, the ED40 [1] is reported as > 100 mg/kg and the ED50 ([2]; oral administration) is reported as 12 mg/kg. For the same compound, the “analgesic effects of the peripheral type (Siegmund test), compared with amidopyrine and glafenine” value [2] was “generally much more active”.

`O=C(OCCN1CCN(c2ccccc2)CC1)c1ccccc1Nc1ccnc2c(C(F)(F)F)cccc12` [SLB 181, 2-(4'-Phenyl-piperazino)-ethyl 2-(8'-trifluoromethyl-4'-quinolyl-amino)-benzoate] gave an LD50 (in vivo) of 2000 mg/kg, an ED40 [1] of 45 mg/kg and an ED50 ([2]; oral administration) of 12 mg/kg. For the same compound, the “analgesic effects of the peripheral type (Siegmund test), compared with amidopyrine and glafenine” value [2] was “generally much more active”.

With `O=C(OCCN1CCN(c2cccc(SC(F)(F)F)c2)CC1)c1ccccc1Nc1ccnc2c(C(F)(F)F)cccc12` [SLB 182, 2-(4'-m-Trifluoromethylthiophenyl-piperazino)-ethyl 2-(8'-trifluoromethyl-4'-quinolyl-amino)-benzoate] the LD50 (in vivo) was > 3000 mg/kg, the ED40 [1] was 150 mg/kg and the ED50 ([2]; oral administration) was 5 mg/kg. The “analgesic effects of the peripheral type (Siegmund test), compared with amidopyrine and glafenine” value [2] was “generally much more active”.
